A short description of this data set: Toxicity in Balb/c mouse xenografted with human HCT-116 cells assessed as body weight change at 10 mg/kg,ip administrated for 18 days by 3 times per week. The class given is organism-based. Conditions: in vivo, 432 h, time 18 day.

Drawing on ChEMBL document CHEMBL5215006, “Antitumor Activity of Piceamycin by Upregulation of N-Myc Downstream-Regulated Gene 1 in Human Colorectal Cancer Cells” (J Nat Prod, 2022), this text covers Activity for 1 compound.

Molecules are shown by their SMILES.

Take `CCc1c2c(nc3ccc(OC(=O)N4CCC(N5CCCCC5)CC4)cc13)-c1cc3c(c(=O)n1C2)COC(=O)[C@]3(O)CC` [IRINOTECAN]: the Activity result is “Toxic”.
